Experimental data published in patent US20220257557A1, “PHARMACEUTICAL COMPOSITION FOR PREVENTING OR TREATING NEUROLOGICAL DISEASES” (GLACEUM INC., priority 2019, published 2022).

Tests used:
[1] = test system: BV2 cells; test: Transcription of NF-κB protein (p65, p50) into nucleus after LPS (Western blot); type: cell-based; settings: 3 h pretreatment (Table 3 amounts), LPS 1 μg/ml 1 h
Method: (§1) RAW264.7 cells or BV2 cells (5×10^5 cells/well) were dispensed in DMEM containing 10% heat-inactivated FBS, 10 IU/mL penicillin G, 100 μg/mL streptomycin and 2 mM L-glutamine and cultured in a 5% CO2 incubator at a temperature of 37° C.
(§2) The compound of Formula III-3, III-4, V-3, III-1, IV-1, V-1, IV-2, V-2 or II-2 was added to the RAW264.7 cells or BV2 cells, and the toxicities of the compounds were determined by MTT assay.
(§3) The pretreated cells of Experimental Example 4-1 were treated with 1 μg/ml of LPS for 1 hour, and then the level of transcription of NF-κB protein into the nucleus of each of p65 and p50 was analyzed through Western blot.

[2] = test system: RAW264.7 cells; test: as above; type: cell-based; settings: 3 h pretreatment (Table 3 amounts), LPS 1 μg/ml 1 h
Method: RAW264.7 cells or BV2 cells (5×10^5 cells/well) were dispensed in DMEM containing 10% heat-inactivated FBS, 10 IU/mL penicillin G, 100 μg/mL streptomycin and 2 mM L-glutamine and cultured in a 5% CO2 incubator at a temperature of 37° C. […]
as §3

[3] = test system: RAW264.7 cells; test: IL-1β, IL-6 and TNF-α mRNA expression after LPS (RT-PCR); type: cell-based; settings: 3 h pretreatment (Table 3 amounts), LPS 1 μg/ml 6 h
Method: as §1, §2
(§4) The pretreated cells of Experimental Example 4-1 were treated with 1 μg/ml of LPS for 6 hours, and then the mRNA expression level of the cytokine IL-1β, IL-6 or TNF-α produced in the inflammatory response was analyzed using RT-PCR.

[4] = test system: BV2 cells; test: as above; type: cell-based; settings: 3 h pretreatment (Table 3 amounts), LPS 1 μg/ml 6 h
Method: as §1, §2, §4

[5] = test system: RAW264.7 cells; test: NO and PGE2 production after LPS; type: cell-based; settings: 3 h pretreatment (Table 3 amounts), LPS 1 μg/ml 24 h
Method: as §1, §2
(§5) The pretreated cells of Experimental Example 4-1 were treated with 1 μg/ml of LPS for 24 hours, and then the expression levels of iNOS and COX-2 were observed through Western blot, and the production of NO and PGE2 was measured.

[6] = test system: BV2 cells; test: NO and PGE2 production after LPS; type: cell-based; settings: 3 h pretreatment (Table 3 amounts), LPS 1 μg/ml 24 h
Method: as §1, §2, §5

[7] = target: T1, rePON1 (PON1, paraoxonase 1) (Homo sapiens, UniProt P27169); test: Prevention of inhibition of PON1 activity by oxidized linolenic acid (TBBL substrate); type: biochemical; settings: for extent to which inhibition of rePON1 activity was prevented, compared with glabridin: compound 30 μM vs glabridin 30 μM; for extent to which inhibition of rePON1 activity was prevented, compared with glabridin / inhibition of rePON1 activity by oxidized linolenic acid: result in words; for inhibition of rePON1 activity by oxidized linolenic acid: compound 30 μM
T1 construct: purchased Thermo Corp. RP-75678
Method: Based on the fact that the activity of PON1 is inhibited when PON1 is treated with oxidized linolenic acid, an experiment was conducted to confirm the prevention of inhibition of PON1 activity. The activity of PON1 was measured using TBBL (5-thiobutyl butyrolactones) as a substrate.
Specifically, after 9.6 μl of 50 mM Tris-HCl containing 1 mM CaCl2 was added to each of […] Eppendorf tubes, 0.2 μl of each of the compounds of Formulas III-1, IV-1, V-1, IV-2, V-2, II-1, IV-3, V-3, III-2, IV-4, V-4, II-2 and III-3 and glabridine was added to each tube so that the concentration thereof was 30 μM. 0.2 μl of rePON1 (RP-75678, Thermo Corp.) was added to each of the 12 tubes and mixed. Thereafter, each of the mixtures was allowed to react at room temperature for 30 minutes, and 0.5 μl of 1 mM oxidized linolenic acid (OX-LA) dissolved in DMSO was added thereto in order to inhibit rePON1 activity, followed by reaction at room temperature for 2 hours, thus preparing solutions (I).
25 μl of 0.5 mM DTNB dissolved in 50 mM Tris-HCl containing 1 mM CaCl2 was dispensed into each well of a 384-well plate, and then 10 μl of each of the solutions (I) was dispensed into each well, and 20 μl of 2 mM TBBL dissolved in 50 mM Tris-HCl containing 1 mM CaCl2 was added to each well, thus preparing samples. The absorbance of each of the samples at 420 nm was measured using a spectrometer (SpectraMax M2) at 37° C. every 2 minutes for 1 hour.
In addition, a negative control was prepared in the same manner as the above-described method, except that, for the preparation of a solution, 0.2 μl of DMSO was added instead of the compounds of Formulas III-1, IV-1, V-1, IV-2, V-2, II-1, IV-3, V-3, III-2, IV-4, V-4, II-2 and III-3 and glabridin. Furthermore, a normal control was prepared in the same manner as the above-described method, except that, for the preparation of a solution, 0.2 μl of DMSO was added instead of the above-described compounds and glabridin and that oxidized linolenic acid was not added. The absorbance of each of the negative control and the normal control was measured.
Using SoftMax Pro software, the activity of PON1 was calculated from the absorbance using the following Equation 1, and the results are shown in Table 1 below.
Activity=(absorbancesample−absorbanceblank)/(absorbancePON1−absorbanceblank)*100 [Equation 1]

[8] = test system: RAW264.7 cells; test: iNOS and COX-2 expression after LPS (Western blot); type: cell-based; settings: 3 h pretreatment (Table 3 amounts), LPS 1 μg/ml 24 h
Method: as §1, §2, §5

[9] = test system: BV2 cells; test: iNOS and COX-2 expression after LPS (Western blot); type: cell-based; settings: 3 h pretreatment (Table 3 amounts), LPS 1 μg/ml 24 h
Method: as §1, §2, §5

T1 sequence (P27169 whole entry): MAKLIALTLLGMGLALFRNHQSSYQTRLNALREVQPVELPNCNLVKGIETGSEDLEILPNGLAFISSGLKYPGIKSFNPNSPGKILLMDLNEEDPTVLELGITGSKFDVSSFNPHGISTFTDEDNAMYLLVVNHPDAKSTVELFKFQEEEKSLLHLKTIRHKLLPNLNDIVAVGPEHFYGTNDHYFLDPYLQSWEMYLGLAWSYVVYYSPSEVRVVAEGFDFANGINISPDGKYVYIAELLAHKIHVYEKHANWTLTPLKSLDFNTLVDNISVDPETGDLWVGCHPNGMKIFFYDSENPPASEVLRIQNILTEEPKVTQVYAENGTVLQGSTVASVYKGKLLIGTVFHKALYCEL

CCOc1ccc([C@H]2COc3c(ccc4c3CCC(C)(C)O4)C2)c(O)c1 [Formula V-1, (S)-2-(8,8-dimethyl-2,3,4,8,9,10-hexahydropyrano[2,3-f]chromen-3-yl)-5-ethoxyphenol]
level of transcription of NF-κB protein into the nucleus, p50 [1]: concentration-dependently decreased | level of transcription of NF-κB protein into the nucleus, p65 [1]: concentration-dependently decreased | level of transcription of NF-κB protein into the nucleus, p50 [2]: concentration-dependently decreased | level of transcription of NF-κB protein into the nucleus, p65 [2]: concentration-dependently decreased | mRNA expression level of IL-1β [3]: concentration-dependently decreased | mRNA expression level of IL-6 [3]: concentration-dependently decreased | mRNA expression level of TNF-α [3]: concentration-dependently decreased | mRNA expression level of IL-1β [4]: concentration-dependently decreased | mRNA expression level of IL-6 [4]: concentration-dependently decreased | mRNA expression level of TNF-α [4]: concentration-dependently decreased | production of NO [5]: concentration-dependently decreased | production of PGE2 [5]: concentration-dependently decreased | production of NO [6]: concentration-dependently decreased | production of PGE2 [6]: concentration-dependently decreased | activity at 30 µM ([7]; 30 μM compound with rePON1 30 min, then oxidized linolenic acid 2 h, TBBL substrate, normal control 100, negative control 73.64): 80.7% | extent to which inhibition of rePON1 activity was prevented, compared with glabridin [7]: greater | inhibition of rePON1 activity by oxidized linolenic acid [7]: prevented | expression level of COX-2 [8]: concentration-dependently decreased | expression level of iNOS [8]: concentration-dependently decreased | expression level of COX-2 [9]: concentration-dependently decreased | expression level of iNOS [9]: concentration-dependently decreased

CCCOc1ccc(C2=Cc3ccc4c(c3OC2)C=CC(C)(C)O4)c(O)c1 [Formula II-2, 2-(8,8-dimethyl-2,8-dihydropyrano[2,3-f]chromen-3-yl)-5-propoxyphenol]
level of transcription of NF-κB protein into the nucleus, p50 [1]: concentration-dependently decreased | level of transcription of NF-κB protein into the nucleus, p65 [1]: concentration-dependently decreased | level of transcription of NF-κB protein into the nucleus, p50 [2]: concentration-dependently decreased | level of transcription of NF-κB protein into the nucleus, p65 [2]: concentration-dependently decreased | mRNA expression level of IL-1β [3]: concentration-dependently decreased | mRNA expression level of IL-6 [3]: concentration-dependently decreased | mRNA expression level of TNF-α [3]: concentration-dependently decreased | mRNA expression level of IL-1β [4]: concentration-dependently decreased | mRNA expression level of IL-6 [4]: concentration-dependently decreased | mRNA expression level of TNF-α [4]: concentration-dependently decreased | production of NO [5]: concentration-dependently decreased | production of PGE2 [5]: concentration-dependently decreased | production of NO [6]: concentration-dependently decreased | production of PGE2 [6]: concentration-dependently decreased | extent to which inhibition of rePON1 activity was prevented, compared with glabridin [7]: greater | inhibition of rePON1 activity by oxidized linolenic acid [7]: prevented | expression level of COX-2 [8]: concentration-dependently decreased | expression level of iNOS [8]: concentration-dependently decreased | expression level of COX-2 [9]: concentration-dependently decreased | expression level of iNOS [9]: concentration-dependently decreased

CCc1ccc(C2COc3c(ccc4c3CCC(C)(C)O4)C2)c(O)c1 (stereo not shown) [Formula III-3, 2-(8,8-dimethyl-2,3,4,8,9,10-hexahydropyrano[2,3-f]chromen-3-yl)-5-ethylphenol]
level of transcription of NF-κB protein into the nucleus, p50 [1]: concentration-dependently decreased | level of transcription of NF-κB protein into the nucleus, p65 [1]: concentration-dependently decreased | level of transcription of NF-κB protein into the nucleus, p50 [2]: concentration-dependently decreased | level of transcription of NF-κB protein into the nucleus, p65 [2]: concentration-dependently decreased | mRNA expression level of IL-1β [3]: concentration-dependently decreased | mRNA expression level of IL-6 [3]: concentration-dependently decreased | mRNA expression level of TNF-α [3]: concentration-dependently decreased | mRNA expression level of IL-1β [4]: concentration-dependently decreased | mRNA expression level of IL-6 [4]: concentration-dependently decreased | mRNA expression level of TNF-α [4]: concentration-dependently decreased | production of NO [5]: concentration-dependently decreased | production of PGE2 [5]: concentration-dependently decreased | production of NO [6]: concentration-dependently decreased | production of PGE2 [6]: concentration-dependently decreased | extent to which inhibition of rePON1 activity was prevented, compared with glabridin [7]: greater | inhibition of rePON1 activity by oxidized linolenic acid [7]: prevented | expression level of COX-2 [8]: concentration-dependently decreased | expression level of iNOS [8]: concentration-dependently decreased | expression level of COX-2 [9]: concentration-dependently decreased | expression level of iNOS [9]: concentration-dependently decreased
